Data taken from patent publication US12503432B2, “Ionizable lipids for nucleic acid delivery” (Global Life Sciences Solutions Canada ULC, priority 2019, dated 2025).

Assays:
primary human T cells [1] = assay: CD19 CAR mRNA LNP expression in isolated primary human T cells; assay type: cell-based; details: CT10, N/P 8, transfected T cells in vitro, FIG. 9
Description: FIG. 9 are two illustrations of CD19 CAR expression levels in isolated primary human T cells mediated by mRNA CT10 N/P 8 LNPs containing PNI 545, PNI 516, PNI132, PNI 542, PNI 565 incorporating CD19 CAR (chimeric antigen receptor) mRNA. Geometric mean fluorescence intensity of anti-CD19-PE fluorophore (top bar graph) and CD19 CAR positive T cell population (bottom histogram) were measured by flow cytometry 24 hours following LNP addition with 500 ng of encapsulated mRNA per 125,000 T cells 3 days after triple activation;
CD19 CAR expression in isolated primary human T cells mediated by mRNA-LNPs containing IL with CT10 composition at N/P 8 was assayed after in vitro exposure. The CAR vector pcDNA3.1 anti-CD19-h(BB Lambda)-EGFP-2nd-CAR (T7 Mut) 7661 bp was purchased from Creative BioLabs, NY, USA.
T cells were isolated from whole blood using a negative isolation procedure and T cell activation, and expansion was carried out by triple activation in ImmunoCult™ Human T Cell Expansion Media as described supra.

C57BL/6 mice = assay: In vivo delivery of OVA-encoded mRNA LNP via intramuscular administration, anti-OVA-IgG ELISA of serum; details: 5 μg OVA mRNA i.m. on Day 1 and 10, serum 2 weeks post second immunization, versus 50 ug OVA protein, FIG. 10
Description: A lipid mixture of LM02b composition in ethanol was mixed with a low pH buffered solution of Ova mRNA at an N/P ratio of 8 using a NanoAssemblr® Ignite™ microfluidic mixer. The LNP were downstream processed using the Amicon™ ultra filtration technique and characterized for size, PDI and encapsulation efficiency. Size and PDI were measured using dynamic light scattering techniques, and nucleic acid encapsulation efficiency was calculated from a modified Quant-iT RiboGreen™ RNA assay. The hydrodynamic diameter of these mRNA-LNPs was ˜76 nm with a polydispersity index of 0.01 to 0.12 and an encapsulation efficiency of ˜95%
All animals were handled according to the Institutional Animal Care and Use Committee ethics protocols. For experiments, 6-8 week old C57BL/6 mice (n=4) were purchased from Envigo. […] Aliquots of serum samples were thawed and analyzed at appropriate dilutions for Ova expression and for IgG measurements using standard ELISA techniques.
Anti-OVA-IgG ELISA of serum samples: Sera from the immunized mice were collected at 2 weeks post second immunization. OVA—specific production of IgG in response to OVA-encoded mRNA in various LNPs were measured by ELISA as described supra. […] After 30 minutes of incubation, a stop solution of 2 N sulphuric acid was added and a plate reader was used to determine absorbance at 450 nm. […]

primary human T cells [2] = assay: EPO mRNA LNP delivery to primary human T cells, Quantikine IVD Human Epo ELISA; assay type: cell-based
Description: Reagents were acquired from Quantikine, Minneapolis, MN. The assay was performed as directed on the Quantikine® IVD® ELISA Human Erythropoietin Immunoassay protocol in the package insert. Briefly; primary human T cells were isolated from fresh whole blood using a negative selection protocol and activated using a triple activator. Seven days post-activation, T cells were dosed with mRNA LNPs encoding EPO at […] mRNA per 500,000 cells and N/P 10. After 48 h of exposure, the T cells were harvested and lysed for cytosolic EPO and media supernatant was sampled for secreted EPO. Quantikine® Human Serum Controls were used.

[3] = primary human T cells, 48 hours

CC/C=C\CC1C(CC(=O)OCCC(CCCCCCCC)OC(=O)C(CCCCCC)CCCCCCCC)CCC1OC(=O)C1(C)CCN(C)CC1 (centres unmarked) [PNI 565]
CD19 CAR expression (primary human T cells [1]): greater than MC3 LNP

CC/C=C\CC1C(CC(=O)OCC(COCCCCCCCC/C=C\C/C=C\CCCCC)OCCCCCCCC/C=C\C/C=C\CCCCC)CCC1OC(=O)C1CCN(C)CC1 (centres unmarked) [PNI 132]
OVA-specific IgG response (C57BL/6 mice): the same or higher IgG response as that of a 10 fold higher dose of OVA protein

CC/C=C\CC1C(CC(=O)OCC(COCCCCCCCC/C=C\C/C=C\CCCCC)OCCCCCCCC/C=C\C/C=C\CCCCC)CCC1OC(=O)C1(C)CCN(C)CC1 (centres unmarked) [PNI 123]
OVA-specific IgG response (C57BL/6 mice): the same or higher IgG response as that of a 10 fold higher dose of OVA protein

CC/C=C\CC1C(CC(=O)OCC(COCCCCCCCC/C=C\C/C=C\CCCCC)OCCCCCCCC/C=C\C/C=C\CCCCC)CCC1OC(=O)CCCN(C)C (centres unmarked) [PNI 101]
cytosolic EPO (primary human T cells [2]; T cell lysate, 48 h exposure, N/P 10, FIG. 5): no cytosolic EPO
secreted EPO (primary human T cells [2]; media supernatant, 48 h exposure, N/P 10, FIG. 5): about 1016 mlU/mL
EPO expression mediated by LNPs versus MC3 (primary human T cells [2]; [3]): higher than those containing MC3
Fold increase in EPO concentration relative to MC3 (primary human T cells [2]; [3]): 1.87
EPO concentration (mIU/mL), 48 hours (primary human T cells [2]; primary human T cells, 48 hours, EPO mRNA LNP, N/P 10): 1016.0 mIU/mL
